Reference: patent publication US7863297B2, “Methods of using 4-(amino)-2-(2,6-dioxo(3-piperidly))-isoindoline-3-dione for the treatment of myelodysplastic syndromes” (Celgene Corporation, priority 2002, dated 2011)
Where two headings read alike, the source gives them in different places.

What was measured:
[1] = system: bone marrow progenitor formation; assay: MDS vs normal bone marrow progenitor formation in pre-clinical models; format: cell-based
[2] = system: production of various cytokines; assay: In vitro studies of effects on production of various cytokines, potency compared with thalidomide; format: cell-based; settings: in vitro cytokine production studies
Excerpt: The results of these studies are described below.

[3] = system: MDS patients; assay: Clinical study in MDS patients with RBC transfusion-dependence or symptomatic anemia
[4] = system: AML cells; assay: Mitogenic response to VEGF in AML cells; format: cell-based; settings: by extinguishing ligand-induced Akt-phosphorylation
[5] = system: MDS patients; assay: Expanded clinical study with additional 16 MDS patients; format: in vivo, human
Excerpt: The clinical study was expanded with additional 16 MDS patients for at least eight weeks. According to the IPSS, 13 of these patients were categorized as low- or intermediate-1-risk patients and three patients were grouped as intermediate-2- or high-risk patients. According to the FAB classification, there were 11 patients with refractory anemia (RA) or RA with ringed sideroblasts (RARS), and five patients with RA with excess blasts (RAEB), RAEB in transformation (RAEB-T). […] Among these 16 patients who completed at least 8 weeks of monitoring, nine patients achieved an erythroid response as assessed by the International MDS Working Group Criteria. The erythroid responses consisted of transfusion independence in seven previously transfusion-dependent patients, a >2 g/dL rise in blood hemoglobin concentration in one patient in with transfusion-independent anemia, and a >50% decrease in RBC transfusion requirement in one transfusion-dependent patient. […] In addition, complete cytogenetic responses developed in five in eight patients with abnormal karyotypes at baseline. These five patients with complete cytogenetic responses all had the Del5q31-33 abnormality, which has been discovered to be a good prognostic factor for MDS. Indeed, all five patients who enrolled in this study with 5q-syndrome achieved a complete cytogenetic response and a major erythroid response.

[6] = system: TNF-α production; settings: LPS-stimulated PBMC, cited from earlier work; for IC50: read-out: IC50 for inhibiting production of TNF-α
[7] = system: TNF-α production; settings: LPS-stimulated human whole blood, cited from earlier work
[8] = system: MDS patients; settings: MDS patients treated with recombinant human EPO; cited from earlier work
[9] = 25 mg daily, initial ten patients
[10] = hematologic responses, nine evaluable

For `Nc1cccc2c1CN(C1CCC(=O)NC1=O)C2=O` (stereo not shown), the “MDS vs normal bone marrow progenitor formation” value [1] was “selectively suppresses MDS vs normal bone marrow progenitor formation”, the “potency relative to thalidomide, in all studies” value [2] was “at least 50 times” and the tolerability ([3]; 10 mg continuous oral daily dose) was “well-tolerated with minimal myelosuppression”. The “grade 3 fatigue necessitating dose reduction” value [3, 9] was 1 patient, the “myelosuppression (higher than grade 3 common toxicity criteria or 50% decrease in leukocyte and platelet counts) necessitating dose reduction” value [3, 9] was 9 patients and the “patients with IPSS Low/Int-1 who experienced hematologic benefit” value ([3]; 6/7 patients with IPSS Low/Int-1) was 86%. For the same molecule, the “complete or partial cytogenetic remission (decrease in abnormal metaphases of more than 50%)” value ([3]; among five patients evaluable for cytogenetic response) was “three”, the “normalization of blast percentage” value ([3]; among responders) was 1 patient and the “patients who discontinued therapy prematurely (<2 weeks)” value ([3]; due to cholecystitis, autoimmune hemolytic anemia, or patient refusal, of 15 patients) was “three”. For the same molecule, the RBC transfusion-independence [3, 10] was 4 patients, the “decrease in RBC transfusions of more than 50%” value [3, 10] was 1 patient and the “increase in Hgb of more than 1.5 g” value [3, 10] was 1 patient. For the same molecule, the “Grade 1,2 drug-related myalgia” value ([3]; limited to the 25 mg dose) was 1 patient, the “Grade 1,2 drug-related pruritus or itchy scalp” value ([3]; limited to the 25 mg dose) was 6 patients and the “minor platelet response (increase of more than 30,000/μL)” value ([3]; number of responses) was “one”. The “evaluable patients who experienced hematologic benefit” value ([3]; of nine evaluable patients, oral 25 mg daily reduced to 10 mg, IWG criteria) was 66%, the overall clinical activity ([3]; patients with low/intermediate-1 risk MDS) was “remarkable erythropoietic and cytogenetic remitting activity” and the “mitogenic response to VEGF” value [4] was “abrogates mitogenic response to VEGF in AML cells”. For the same molecule, the “patients with 5q-syndrome who achieved a complete cytogenetic response and a major erythroid response” value ([5]; all enrolled patients with 5q-syndrome) was “five”, the “need for dose reduction by completion of eight weeks therapy” value ([5]; all patients with starting dose of 25 mg) was “required dose reduction” and the “patients who achieved an erythroid response (International MDS Working Group Criteria)” value ([5]; among 16 patients with at least 8 weeks of monitoring, start 25 mg or 10 mg daily) was “nine”. The “apoptotic index for myelodysplastic progenitors” value ([5]; association with therapy) was “increased apoptotic index”, the “normal hematopoietic progenitor cells” value ([5]; association with therapy) was “recovery of normal hematopoietic progenitor cells” and the “transfusion independence in previously transfusion-dependent patients” value ([5]; erythroid responses) was “seven”. For the same molecule, the minor platelet response ([5]; human, in vivo) was “One”, the complete cytogenetic responses ([5]; in eight patients with abnormal karyotypes at baseline) was “five” and the major erythroid response ([5]; of 16 patients) was “eight”. The minor erythroid response ([5]; of 16 patients) was “one”, the “>50% decrease in RBC transfusion requirement” value ([5]; transfusion-dependent patient) was “one” and the “>2 g/dL rise in blood hemoglobin concentration” value ([5]; transfusion-independent anemia) was “one”. The “IC50 for inhibiting production of TNF-α” value [6] was about 0.0259 µg/mL, the IC50 [6] was about 100 nM and the “IC50 for inhibiting production of TNF-α” value [7] was about 0.1036 µg/mL. For the same molecule, the IC50 ([7]; read-out: IC50 for inhibiting production of TNF-α) was about 480 nM.

In the case of `O=C1CCC(N2C(=O)c3ccccc3C2=O)C(=O)N1` (racemic) [Thalidomide, 2-(2,6-dioxo-3-piperidinyl)-1H-isoindole-1,3(2H)-dione, reference compound], the “IC50 for inhibiting production of TNF-α” value [6] is listed as about 50.2 µg/mL and the IC50 [6] is listed as about 194000 nM.

In the case of “recombinant human EPO: recombinant human erythropoietin (EPO), a hematopoietic growth factor”, the “patients with sustained improvement in hemoglobin or decrease in transfusion requirement” value [8] is listed as “less than 25%”.
